This is an account of results in patent publication US8163793B2, “Proline derivatives” (Hoffman-La Roche Inc., priority 2009, dated 2012).

Each structure is given as a SMILES string.

The target in one assay is Cat L (UniProt P07711). Description: Cathepsin enzyme inhibition assay (fluorogenic peptide substrate Z-Val-Val-Arg-AMC), Cathepsin L. The note with it: enzyme 1 nM, substrate 20 μM, pH 6.5; read-out: CatL IC50. It is filed as biochemical, human and mouse. An outline of the steps:
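Cathepsin L at 1 nM was mixed with compound, then started with 20 μM Z-Val-Val-Arg-AMC in pH 6.5 potassium phosphate with EDTA, Triton X-100 and 5 mM DTT. AMC fluorescence (ex 360/em 465 nm) was followed over 20 min. IC50 is given in μM.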

The target in the next assay is Cathepsin S (UniProt P25774). Put plainly: Cathepsin enzyme inhibition assay (fluorogenic peptide substrate Z-Val-Val-Arg-AMC), Cathepsin S. The settings on record: enzyme 1 nM, substrate 20 μM, pH 6.5; read-out: CatS IC50. The assay is classed as biochemical, human and mouse. An outline of the steps: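 Human or mouse cathepsin S (1 nM) was run in 100 mM potassium phosphate pH 6.5 with 5 mM EDTA, 0.001% Triton X-100 and 5 mM DTT. The rise in AMC fluorescence from cleavage was measured, and IC50 values were calculated by standard methods and expressed in μM.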

For the compound `CC(C)(C)OC(=O)N1CCC(C(=O)N2C[C@H](S(=O)(=O)c3ccccc3Cl)C[C@H]2C(=O)NC2(C#N)CC2)(c2ccc(Cl)cc2)CC1` [Example 433, tert-butyl 4-(4-chlorophenyl)-4-((2S,4R)-4-(2-chlorophenylsulfonyl)-2-(1-cyanocyclopropylcarbamoyl)pyrrolidine-1-carbonyl)piperidine-1-carboxylate], the IC50 stood at 945 nM at Cat L and 1.95 nM at Cathepsin S.
The matching figures for `N#CC1(NC(=O)[C@@H]2C[C@@H](S(=O)(=O)c3ccccc3Cl)CN2C(=O)C(F)(F)c2ccc(Cl)c(Cl)c2)CC1` [Example 437, (2S,4R)-4-(2-Chloro-benzenesulfonyl)-1-[2-(3,4-dichloro-phenyl)-2,2-difluoro-acetyl]-pyrrolidine-2-carboxylic acid (1-cyano-cyclopropyl)-amide]: 335 nM and 1.45 nM.
The matching figures for `N#CC1(NC(=O)[C@@H]2C[C@@H](S(=O)(=O)c3ccccc3Cl)CN2C(=O)C2(c3ccc(Cl)cc3F)CC2)CC1` [Example 439, (2S,4R)-1-(1-(4-chloro-2-fluorophenyl)cyclopropanecarbonyl)-4-(2-chlorophenylsulfonyl)-N-(1-cyanocyclopropyl)pyrrolidine-2-carboxamide]: 29.5 nM and 0.895 nM.
For `CS(=O)(=O)[C@@H]1C[C@@H](C(=O)NC2(C#N)CC2)N(C(=O)C2(C(F)(F)F)CC2)C1` [Example 440, (2S,4R)-4-Methanesulfonyl-1-(1-trifluoromethyl-cyclopropanecarbonyl)-pyrrolidine-2-carboxylic acid (1-cyano-cyclopropyl)-amide], the values for the IC50 on Cat L and at Cathepsin S were no less than 25000 nM and 7470 nM, respectively.
The matching figures for `CC(C)(C)c1ccc([C@@H]2N[C@](CCS(=O)(=O)c3ccccc3)(C(=O)NC3(C#N)CC3)C[C@H]2S(=O)(=O)c2ccccc2)cc1` [Example 441, (2S,4R,5S)-5-(4-tert-butylphenyl)-N-(1-cyanocyclopropyl)-4-(phenylsulfonyl)-2-(2-(phenylsulfonyl)ethyl)pyrrolidine-2-carboxamide]: no less than 25000 nM and 85.5 nM.
The matching figures for `N#CC1(NC(=O)[C@@H]2C[C@@H](S(=O)(=O)c3ccccc3Cl)CN2C(=O)C(F)(F)c2ccc(Cl)cc2)CC1` [Example 442, (2S,4R)-4-(2-Chloro-benzenesulfonyl)-1-[2-(4-chloro-phenyl)-2,2-difluoro-acetyl]-pyrrolidine-2-carboxylic acid (1-cyano-cyclopropyl)-amide]: 240 nM and 0.615 nM.
In the case of `N#CC1(NC(=O)[C@@H]2C[C@@H](S(=O)(=O)c3ccccc3Cl)CN2C(=O)C2(c3ccc(Cl)cc3Cl)CC2)CC1` [Example 443, (2S,4R)-4-(2-Chloro-benzenesulfonyl)-1-[1-(2,4-dichloro-phenyl)-cyclopropanecarbonyl]-pyrrolidine-2-carboxylic acid (1-cyano-cyclopropyl)-amide], the figures for the half-inhibitory concentration (IC50) at Cat L and on Cathepsin S were 22 nM and 0.605 nM, respectively.
As to `N#CC1(NC(=O)[C@@H]2C[C@@H](S(=O)(=O)c3ccccc3Cl)CN2C(=O)Cc2ccc(Cl)c(F)c2)CC1` [Example 444, (2S,4R)-4-(2-Chloro-benzenesulfonyl)-1-[2-(4-chloro-3-fluoro-phenyl)-acetyl]-pyrrolidine-2-carboxylic acid (1-cyano-cyclopropyl)-amide], the values for the IC50 on Cat L and at Cathepsin S were 260 nM and 0.895 nM, respectively.
`Cc1cc(N2C[C@H](S(=O)(=O)CC3CC3)C[C@H]2C(=O)NC2(C#N)CC2)n(Cc2ccccc2)n1` [Example 445, (2S,4R)-1-(2-Benzyl-5-methyl-2H-pyrazol-3-yl)-4-cyclopropylmethanesulfonyl-pyrrolidine-2-carboxylic acid (1-cyano-cyclopropyl)-amide]: the figures for the IC50 at Cat L and at Cathepsin S were no less than 25000 nM and 725 nM, respectively.
The matching figures for `N#CC1(NC(=O)[C@@H]2C[C@@H](S(=O)(=O)c3ccccc3Cl)CN2C(=O)C2(c3ccc(Cl)c(F)c3)CC2)CC1` [Example 446, (2S,4R)-4-(2-Chloro-benzenesulfonyl)-1-[1-(4-chloro-3-fluoro-phenyl)-cyclopropanecarbonyl]-pyrrolidine-2-carboxylic acid (1-cyano-cyclopropyl)-amide]: 21.5 nM and 0.275 nM.
Taken in the same sequence, the figures for `CC(C)(C)c1ccc(C2NC(C(=O)NC3(C#N)CC3)CC2S(=O)(=O)c2ccccc2)cc1` (stereo not shown) [Example 447, 4-Benzenesulfonyl-5-(4-tert-butyl-phenyl)-pyrrolidine-2-carboxylic acid (1-cyano-cyclopropyl)-amide] were no less than 25000 nM and 6130 nM.
Taken in the same sequence, the figures for `Cc1cc(N2C[C@H](S(C)(=O)=O)C[C@H]2C(=O)NC2(C#N)CC2)n(CCc2ccccc2)n1` [Example 448, (2S,4R)-4-Methanesulfonyl-1-(5-methyl-2-phenethyl-2H-pyrazol-3-yl)-pyrrolidine-2-carboxylic acid (1-cyano-cyclopropyl)-amide] were no less than 25000 nM and 8370 nM.
`Cc1cc(N2C[C@H](S(C)(=O)=O)C[C@H]2C(=O)NC2(C#N)CC2)n(Cc2ccccc2)n1` [Example 449, (2S,4R)-1-(2-Benzyl-5-methyl-2H-pyrazol-3-yl)-4-methanesulfonyl-pyrrolidine-2-carboxylic Acid (1-cyano-cyclopropyl)-amide]: the IC50 on Cat L was no less than 25000 nM; on Cathepsin S, 10500 nM.
Taken in the same sequence, the figures for `C=CCOc1ccccc1S(=O)(=O)[C@@H]1C[C@@H](C(=O)NC2(C#N)CC2)N(C(=O)OC(C)(C)C)C1` [Example 450, (2S,4R)-4-(2-Allyloxy-benzenesulfonyl)-2-(1-cyano-cyclopropylcarbamoyl)-pyrrolidine-1-carboxylic acid tert-butyl ester] were no less than 25000 nM and 675 nM.
Taken in the same sequence, the figures for `N#CC1(NC(=O)[C@@H]2C[C@@H](S(=O)(=O)c3ccc(OCC(F)(F)F)cc3C(F)(F)F)CN2C(=O)C2(CO)CC2)CC1` [Example 451, (2S,4R)-1-(1-Hydroxymethyl-cyclopropanecarbonyl)-4-[4-(2,2,2-trifluoro-ethoxy)-2-trifluoromethyl-benzenesulfonyl]-pyrrolidine-2-carboxylic acid (1-cyano-cyclopropyl)-amide] were 6380 nM and 0.758 nM.
Regarding `N#CC1(NC(=O)[C@@H]2C[C@@H](S(=O)(=O)c3ccccc3Cl)CN2C(=O)C2(CO)CC2)CC1` [Example 452, (2S,4R)-4-(2-Chloro-benzenesulfonyl)-1-(1-hydroxymethyl-cyclopropanecarbonyl)-pyrrolidine-2-carboxylic acid (1-cyano-cyclopropyl)-amide], the IC50 came out at 7930 nM at Cat L and 1.17 nM on Cathepsin S.
The matching figures for `C=CCOc1ccccc1S(=O)(=O)[C@H]1CN[C@H](C(=O)NC2(C#N)CC2)C1` [Example 453, (2S,4R)-4-(2-Allyloxy-benzenesulfonyl)-pyrrolidine-2-carboxylic acid (1-cyano-cyclopropyl)-amide]: no less than 25000 nM and 845 nM.
The matching figures for `CC1(C(=O)N2C[C@H](S(=O)(=O)CC3CC3)C[C@H]2C(=O)NC2(C#N)CC2)CC1` [Example 454, (2S,4R)-4-Cyclopropylmethanesulfonyl-1-(1-methyl-cyclopropanecarbonyl)-pyrrolidine-2-carboxylic acid (1-cyano-cyclopropyl)-amide]: no less than 25000 nM and 1660 nM.
`C=CCN[C@@H](C(=O)N1C[C@H](S(=O)(=O)c2ccccc2OCC=C)C[C@H]1C(=O)NC1(C#N)CC1)c1ccc(Cl)cc1` [Example 455, (2S,4R)-1-[(R)-2-Allylamino-2-(4-chloro-phenyl)-acetyl]-4-(2-allyloxy-benzenesulfonyl)-pyrrolidine-2-carboxylic acid (1-cyano-cyclopropyl)-amide]: the IC50 on Cat L is no less than 25000 nM; on Cathepsin S it was 77 nM.
The matching figures for `Cc1cc(N2C[C@H](S(=O)(=O)c3ccc(N4CC(F)(F)C4)cc3Cl)C[C@H]2C(=O)NC2(C#N)CC2)n(C2CCC2)n1` [Example 456, (2S,4R)-4-(2-chloro-4-(3,3-difluoroazetidin-1-yl)phenylsulfonyl)-N-(1-cyanocyclopropyl)-1-(1-cyclobutyl-3-methyl-1H-pyrazol-5-yl)pyrrolidine-2-carboxamide]: 3990 nM and 0.725 nM.
With `N#CC1(NC(=O)[C@@H]2C[C@@H](S(=O)(=O)c3ccccc3)CN2C(=O)C2(c3ccc(Cl)cc3)CC2)CC1` [Example 457, (2S,4R)-1-(1-(4-chlorophenyl)cyclopropanecarbonyl)-N-(1-cyanocyclopropyl)-4-(phenylsulfonyl)pyrrolidine-2-carboxamide], the IC50 at Cat L was 530 nM; at Cathepsin S it was 34000 nM.
Taken in the same sequence, the figures for `N#CC1(NC(=O)[C@@H]2C[C@@H](S(=O)(=O)c3ccccc3Cl)CN2C(=O)C2(c3ccc(I)cc3)CC2)CC1` [Example 459, (2S,4R)-4-(2-Chloro-benzenesulfonyl)-1-[1-(4-iodo-phenyl)-cyclopropanecarbonyl]-pyrrolidine-2-carboxylic acid (1-cyano-cyclopropyl)-amide] were 6.5 nM and 0.505 nM.
Taken in the same sequence, the figures for `COc1cc(C2(C(=O)N3C[C@H](S(=O)(=O)c4ccccc4Cl)C[C@H]3C(=O)NC3(C#N)CC3)CC2)c(Cl)cc1Cl` [Example 460, (2S,4R)-4-(2-Chloro-benzenesulfonyl)-1-[1-(2,4-dichloro-5-methoxy-phenyl)-cyclopropanecarbonyl]-pyrrolidine-2-carboxylic acid (1-cyano-cyclopropyl)-amide] were 52.5 nM and 5.85 nM.
